Read-outs that look alike come from different tables or passages of the source.
How the values were obtained:
Experiment in all cases: DSF 100 kinase selectivity screen;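 further: compound tested at 20 µM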
Format in all cases: binding
[1] = target: T1, ~100 representative kinases (Homo sapiens, UniProt Q9Y6E0); settings: protein MST3; average of three replicates
T1 construct: Recombinant protein kinase domains with a concentration of 2 μM
Summary of the method: (§1)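 Each kinase domain, at 2 μM, is mixed with 20 μM test compound and SYPRO Orange in Hepes (20 mM, pH 7.5) with 500 mM NaCl. Temperature is then raised at 3°C/min and fluorescence-monitored unfolding yields the melting temperature change, ΔTm in degrees Celsius.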

[2] = target: T2, ~100 representative kinases (Homo sapiens, UniProt O94804); settings: Protein STK10; DSF; average of three replicates
T2 construct: Recombinant protein kinase domains with a concentration of 2 μM
T2 sequence (O94804 whole entry, the tested form may be a part): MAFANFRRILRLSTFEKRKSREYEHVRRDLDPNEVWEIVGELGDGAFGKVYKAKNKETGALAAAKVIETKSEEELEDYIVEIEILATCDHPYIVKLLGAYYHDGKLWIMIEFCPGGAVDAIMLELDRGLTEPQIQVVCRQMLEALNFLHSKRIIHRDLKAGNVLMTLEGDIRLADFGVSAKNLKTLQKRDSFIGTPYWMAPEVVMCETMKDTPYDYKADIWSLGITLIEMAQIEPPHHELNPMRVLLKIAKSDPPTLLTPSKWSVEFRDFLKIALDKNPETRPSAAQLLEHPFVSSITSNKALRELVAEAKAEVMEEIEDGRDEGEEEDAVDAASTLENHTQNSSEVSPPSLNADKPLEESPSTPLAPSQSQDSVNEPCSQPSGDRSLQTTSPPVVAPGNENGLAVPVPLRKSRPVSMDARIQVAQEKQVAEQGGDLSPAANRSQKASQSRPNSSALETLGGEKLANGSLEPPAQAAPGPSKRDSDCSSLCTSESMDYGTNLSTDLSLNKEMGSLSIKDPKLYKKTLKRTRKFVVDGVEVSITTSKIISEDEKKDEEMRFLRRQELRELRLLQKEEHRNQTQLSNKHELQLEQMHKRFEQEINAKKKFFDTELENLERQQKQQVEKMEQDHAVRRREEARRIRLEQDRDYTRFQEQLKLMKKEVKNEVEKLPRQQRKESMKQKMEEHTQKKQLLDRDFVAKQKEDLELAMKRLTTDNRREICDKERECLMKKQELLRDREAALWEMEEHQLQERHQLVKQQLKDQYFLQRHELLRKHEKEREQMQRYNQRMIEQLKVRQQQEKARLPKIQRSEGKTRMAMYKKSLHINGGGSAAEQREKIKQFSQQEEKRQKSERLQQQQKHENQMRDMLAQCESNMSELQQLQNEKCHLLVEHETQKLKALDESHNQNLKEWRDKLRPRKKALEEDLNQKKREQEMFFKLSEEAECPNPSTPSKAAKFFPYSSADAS
Summary of the method: as §1

[3] = target: T3, ~100 representative kinases (Homo sapiens, UniProt Q9UEW8); settings: Protein STK39; DSF; average of three replicates
T3 construct: Recombinant protein kinase domains with a concentration of 2 μM
Summary of the method: as §1

[4] = target: T4, ~100 representative kinases (Homo sapiens, UniProt O96017); settings: Protein CHEK2; average of three replicates
T4 construct: Recombinant protein kinase domains with a concentration of 2 μM
T4 sequence (O96017 whole entry, the tested form may be a part): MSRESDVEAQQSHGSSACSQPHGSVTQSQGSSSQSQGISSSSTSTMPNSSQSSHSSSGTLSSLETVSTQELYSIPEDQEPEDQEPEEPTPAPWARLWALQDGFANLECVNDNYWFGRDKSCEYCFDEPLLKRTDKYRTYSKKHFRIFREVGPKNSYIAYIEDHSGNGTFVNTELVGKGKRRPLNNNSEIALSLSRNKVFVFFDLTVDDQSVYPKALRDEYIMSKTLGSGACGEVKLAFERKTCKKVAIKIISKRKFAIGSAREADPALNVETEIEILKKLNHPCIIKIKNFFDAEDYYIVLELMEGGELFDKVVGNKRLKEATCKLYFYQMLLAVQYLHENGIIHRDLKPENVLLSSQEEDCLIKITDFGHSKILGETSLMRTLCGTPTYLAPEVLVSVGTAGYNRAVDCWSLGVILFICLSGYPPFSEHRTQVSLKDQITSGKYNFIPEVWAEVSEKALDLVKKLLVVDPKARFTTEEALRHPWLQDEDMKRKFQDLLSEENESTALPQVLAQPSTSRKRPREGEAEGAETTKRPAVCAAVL
Summary of the method: as §1

[5] = target: T5, ~100 representative kinases (Homo sapiens, UniProt Q8TDX7); settings: protein NEK7; average of three replicates
T5 construct: Recombinant protein kinase domains with a concentration of 2 μM
T5 sequence (Q8TDX7 whole entry, the tested form may be a part): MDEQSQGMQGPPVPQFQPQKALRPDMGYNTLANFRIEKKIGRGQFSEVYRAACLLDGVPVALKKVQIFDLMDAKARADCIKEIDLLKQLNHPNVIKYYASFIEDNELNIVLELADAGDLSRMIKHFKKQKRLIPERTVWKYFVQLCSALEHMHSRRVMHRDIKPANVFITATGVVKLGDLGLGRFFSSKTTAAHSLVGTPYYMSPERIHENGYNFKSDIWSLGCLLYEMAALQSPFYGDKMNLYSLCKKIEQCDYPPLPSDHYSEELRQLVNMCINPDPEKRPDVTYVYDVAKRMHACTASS
Summary of the method: as §1

[6] = target: T6, ~100 representative kinases (Homo sapiens, UniProt O14976); settings: protein GAK; average of three replicates
T6 construct: Recombinant protein kinase domains with a concentration of 2 μM
T6 sequence (O14976 1-1311): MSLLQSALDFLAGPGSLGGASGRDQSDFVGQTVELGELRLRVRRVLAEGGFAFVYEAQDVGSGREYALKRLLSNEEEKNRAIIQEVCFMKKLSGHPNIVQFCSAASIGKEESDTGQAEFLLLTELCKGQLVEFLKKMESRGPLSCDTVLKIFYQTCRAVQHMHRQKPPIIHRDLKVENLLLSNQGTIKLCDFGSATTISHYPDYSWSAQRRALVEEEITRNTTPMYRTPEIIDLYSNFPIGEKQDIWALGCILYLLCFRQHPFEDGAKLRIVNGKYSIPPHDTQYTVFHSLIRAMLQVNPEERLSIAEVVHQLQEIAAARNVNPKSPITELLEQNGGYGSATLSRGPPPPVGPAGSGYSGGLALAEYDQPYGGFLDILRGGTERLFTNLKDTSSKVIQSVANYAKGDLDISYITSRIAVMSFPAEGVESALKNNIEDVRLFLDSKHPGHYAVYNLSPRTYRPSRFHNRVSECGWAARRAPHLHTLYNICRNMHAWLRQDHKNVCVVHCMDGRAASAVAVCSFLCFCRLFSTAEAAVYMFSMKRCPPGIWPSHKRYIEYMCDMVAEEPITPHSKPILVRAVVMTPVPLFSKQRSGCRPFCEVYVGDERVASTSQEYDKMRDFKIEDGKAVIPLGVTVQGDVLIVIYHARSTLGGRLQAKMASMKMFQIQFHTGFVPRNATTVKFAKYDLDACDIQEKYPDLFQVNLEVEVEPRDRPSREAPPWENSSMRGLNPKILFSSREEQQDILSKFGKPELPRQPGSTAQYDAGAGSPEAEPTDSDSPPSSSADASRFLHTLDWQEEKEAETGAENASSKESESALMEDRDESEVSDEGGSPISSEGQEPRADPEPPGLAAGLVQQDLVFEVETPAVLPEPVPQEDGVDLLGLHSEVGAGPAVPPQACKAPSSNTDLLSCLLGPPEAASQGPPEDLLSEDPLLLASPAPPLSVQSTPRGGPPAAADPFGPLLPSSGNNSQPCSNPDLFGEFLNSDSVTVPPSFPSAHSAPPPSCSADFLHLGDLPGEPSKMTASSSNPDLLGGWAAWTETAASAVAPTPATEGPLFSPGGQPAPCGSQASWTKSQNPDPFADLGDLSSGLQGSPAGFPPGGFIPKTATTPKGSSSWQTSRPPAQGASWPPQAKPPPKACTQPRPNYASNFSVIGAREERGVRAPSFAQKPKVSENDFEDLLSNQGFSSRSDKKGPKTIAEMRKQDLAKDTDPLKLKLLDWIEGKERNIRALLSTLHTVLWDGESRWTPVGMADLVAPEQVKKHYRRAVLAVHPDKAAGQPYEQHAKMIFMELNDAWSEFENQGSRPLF
Summary of the method: as §1

[7] = target: T7, ~100 representative kinases (Homo sapiens, UniProt P54753); settings: Protein EPHB3A; average of three replicates
T7 construct: Recombinant protein kinase domains with a concentration of 2 μM
T7 sequence (P54753 34-998): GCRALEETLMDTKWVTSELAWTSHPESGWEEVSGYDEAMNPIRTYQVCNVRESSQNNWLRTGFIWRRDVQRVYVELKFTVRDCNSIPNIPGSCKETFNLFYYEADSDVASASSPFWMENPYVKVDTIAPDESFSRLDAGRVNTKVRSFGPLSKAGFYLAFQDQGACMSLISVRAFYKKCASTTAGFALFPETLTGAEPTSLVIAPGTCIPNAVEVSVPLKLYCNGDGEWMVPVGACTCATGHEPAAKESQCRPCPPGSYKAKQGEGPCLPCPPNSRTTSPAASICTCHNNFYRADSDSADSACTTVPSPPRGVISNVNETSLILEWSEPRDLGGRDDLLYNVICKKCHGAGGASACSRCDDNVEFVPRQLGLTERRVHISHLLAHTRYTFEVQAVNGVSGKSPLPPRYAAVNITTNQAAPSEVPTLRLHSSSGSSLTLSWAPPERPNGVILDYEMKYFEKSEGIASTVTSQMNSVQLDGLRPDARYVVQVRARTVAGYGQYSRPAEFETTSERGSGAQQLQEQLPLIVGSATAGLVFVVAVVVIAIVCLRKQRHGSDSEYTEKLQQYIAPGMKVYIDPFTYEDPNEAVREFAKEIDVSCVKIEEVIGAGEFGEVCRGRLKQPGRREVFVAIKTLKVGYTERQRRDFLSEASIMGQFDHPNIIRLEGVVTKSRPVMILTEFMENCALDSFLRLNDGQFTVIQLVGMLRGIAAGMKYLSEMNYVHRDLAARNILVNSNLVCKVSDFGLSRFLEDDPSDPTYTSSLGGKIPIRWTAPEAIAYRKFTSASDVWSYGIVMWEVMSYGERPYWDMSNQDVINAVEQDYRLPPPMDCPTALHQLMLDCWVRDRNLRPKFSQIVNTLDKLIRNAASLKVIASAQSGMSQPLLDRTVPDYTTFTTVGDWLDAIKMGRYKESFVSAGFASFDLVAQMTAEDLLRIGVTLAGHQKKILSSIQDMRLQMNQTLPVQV
Summary of the method: as §1

[8] = target: T8, ~100 representative kinases (Homo sapiens, UniProt Q16539)
T8 construct: Recombinant protein kinase domains with a concentration of 2 μM
T8 sequence (Q16539 whole entry, the tested form may be a part): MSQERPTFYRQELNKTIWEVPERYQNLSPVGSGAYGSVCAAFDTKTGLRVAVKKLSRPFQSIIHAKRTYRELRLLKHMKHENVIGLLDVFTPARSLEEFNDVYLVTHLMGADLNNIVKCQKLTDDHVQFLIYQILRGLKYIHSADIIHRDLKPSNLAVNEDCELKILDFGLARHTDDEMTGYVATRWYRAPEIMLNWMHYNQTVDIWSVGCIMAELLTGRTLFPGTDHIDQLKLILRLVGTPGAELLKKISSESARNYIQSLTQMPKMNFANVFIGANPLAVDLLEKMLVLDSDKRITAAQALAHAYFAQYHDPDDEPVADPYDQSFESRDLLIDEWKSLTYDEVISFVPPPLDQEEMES
Summary of the method: as §1

[9] = protein MAPK14, average of three replicates

T1 sequence (Q9Y6E0 whole entry, the tested form may be a part): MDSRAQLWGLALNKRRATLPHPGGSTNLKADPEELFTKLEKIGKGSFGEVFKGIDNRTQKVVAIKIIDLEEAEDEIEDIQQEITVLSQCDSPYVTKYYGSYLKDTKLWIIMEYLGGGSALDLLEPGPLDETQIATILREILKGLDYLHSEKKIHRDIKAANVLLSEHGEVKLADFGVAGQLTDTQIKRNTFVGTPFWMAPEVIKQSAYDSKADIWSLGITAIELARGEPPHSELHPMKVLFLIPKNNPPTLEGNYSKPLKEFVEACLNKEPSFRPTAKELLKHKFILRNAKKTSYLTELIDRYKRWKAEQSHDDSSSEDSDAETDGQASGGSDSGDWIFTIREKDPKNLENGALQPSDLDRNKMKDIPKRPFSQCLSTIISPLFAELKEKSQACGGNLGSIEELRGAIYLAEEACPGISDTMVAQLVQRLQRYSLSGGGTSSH

Structure (SMILES)	dTm [1] [K]	dTm [2] [K]	dTm [3] [K]	dTm [4] [K]	dTm [5] [K]	dTm [6] [K]	dTm [7] [K]	dTm [8, 9] [K]	dTm [8] [K]
COc1cc2c(Oc3ccc(NC(=O)C4(C(=O)Nc5ccc(F)cc5)CC4)cc3F)ccnc2cc1OCCCN1CCOCC1 [Foretinib, reference compound]	4.06	16.81	0.70	18.83	-0.49	2.91	13.52		6.85
O=C(Nc1cccc(-c2c[nH]c3ncnc(N4CCOCC4)c23)c1)C1(C(=O)Nc2cccc3c2CCC3)CC1 [Compound 11]	-2.04	10.54	1.05	1.65	0.84	-0.59	0.28	1.60	
Cc1ccc(NC(=O)C2(C(=O)Nc3cccc(-c4c[nH]c5ncnc(N6CCOCC6)c45)c3)CC2)cc1 [Compound 14]	4.56	11.44	1.16	3.90	-0.37	0.81	3.71	0.29	
O=C(Nc1ccc(Cl)cc1)C1(C(=O)Nc2cccc(-c3c[nH]c4ncnc(N5CCOCC5)c34)c2)CC1 [Compound 13]	4.95	14.64	2.32	5.52	1.06	1.60	5.32	1.55	
O=C(Nc1ccc(F)cc1)C1(C(=O)Nc2cccc(-c3c[nH]c4ncnc(N5CCOCC5)c34)c2)CC1 [Compound 2]	7.19	12.98	1.95	4.13	-0.93	0.23	2.82	0.08	

More lines, main results first:

dTm [1] [K]	dTm [2] [K]	dTm [3] [K]	dTm [4] [K]	dTm [5] [K]	dTm [6] [K]	dTm [7] [K]	dTm [8, 9] [K]	Structure (SMILES)	dTm [8] [K]
9.37	20.14	7.55	10.72	2.34	7.34	11.98	3.86	CC(C)(C)c1cc(NC(=O)Nc2cccc(-c3c[nH]c4ncnc(N5CCOCC5)c34)c2)n(-c2ccc3ncccc3c2)n1 [Compound 28]	
0.91	-0.11	0.28	0.72	0.34	0.77	0.08	0.16	CCNc1nc(Nc2cc(F)c(C(=O)N3CCOCC3)cc2OC)ncc1C(F)(F)F [GNE-7915]	
6.96	15.34	2.24	5.34	1.61	1.28	2.57	1.31	O=C(Nc1cccc(-c2c[nH]c3ncnc(N4CCOCC4)c23)c1)C1(C(=O)Nc2ccc(F)c(Cl)c2)CC1 [Compound 18]	
-3.75	-1.96	2.35	13.85	-0.65	6.68	-1.35	-0.75	COc1cc(C(=O)N2CCOCC2)c(F)cc1Nc1nc(N(C)C)c2c(Cl)c[nH]c2n1 [Compound 36]	
1.58	7.29	-0.15	2.18	-0.67	0.0654	0.59	-0.16	COc1ccc(NC(=O)C2(C(=O)Nc3cccc(-c4c[nH]c5ncnc(N6CCOCC6)c45)c3)CC2)cc1 [Compound 16]	
3.82	8.23	0.71	2.66	0.20	0.84	1.32	-0.59	Cc1cc(F)ccc1NC(=O)C1(C(=O)Nc2cccc(-c3c[nH]c4ncnc(N5CCOCC5)c34)c2)CC1 [Compound 24]	

Source: publication PMC12136037, “Type II kinase inhibitors that target Parkinson’s disease–associated LRRK2” (Science Advances, 2025)
